Measurements reported in PubChem BioAssay AID2060892 (Molecular Pharmacology Branch, DTP, NCI, 2025).
Several values for one entry are separate records, joined by “and”; a condition that tells them apart may be missing. Equal entries are not always repeated.

System: HOP-62 complex spheroids with HUVEC/MSC, viability
Experiment: Anticancer human tumor HOP-62 cell line growth inhibition [RAS];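 further: spheroids exposed to agents for seven days before readout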;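 on viability, T/C: 100% = DMSO vehicle control viability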
Settings: for viability, T/C: stronger effect = lower value
Procedure, shortened: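 Tumour cells grown as complex spheroids with HUVEC endothelial cells and mesenchymal stem cells, treated with RAS pathway inhibitor combinations. Each agent spans half-log steps from near clinical Cmax, or 10 microM where Cmax is unknown.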

In the case of `CCN1CCN(Cc2ccc(Nc3ncc(F)c(-c4cc(F)c5nc(C)n(C(C)C)c5c4)n3)nc2)CC1` + C#Cc1c(F)ccc2cc(O)cc(-c3ncc4c(N5CC6CCC(C5)N6)nc(OCC56CCCN5CC(F)C6)nc4c3F)c12, the IC50 (curve of first compound, second compound 0.0316 µM) is reported as > 1 µM, the IC50 (curve of first compound, second compound 0.1 µM) is reported as > 1 µM and the IC50 (curve of first compound, second compound 0.316 µM) is reported as > 1 µM. The IC50 (curve of first compound, second compound 1 µM) was > 1 µM, the IC50 (curve of first compound, second compound 3.16 µM) was > 1 µM and the IC50 (curve of first compound, second compound 10 µM) was < 0.00316 µM. It also gave a viability, T/C (second compound 0.0316 µM, first compound 0.00316 µM) of 119%, a viability, T/C (second compound 0.0316 µM, first compound 0.01 µM) of 105% and a viability, T/C (second compound 0.0316 µM, first compound 0.0316 µM) of 101%. For the same compound, the viability, T/C (second compound 0.0316 µM, first compound 0.1 µM) was 90.6%, the viability, T/C (second compound 0.0316 µM, first compound 0.316 µM) was 95.8% and the viability, T/C (second compound 0.0316 µM, first compound 1 µM) was 88.1%. The viability, T/C (second compound 0.1 µM, first compound 0.00316 µM) was 111%, the viability, T/C (second compound 0.1 µM, first compound 0.01 µM) was 103% and the viability, T/C (second compound 0.1 µM, first compound 0.0316 µM) was 89.8%. For the same compound, the viability, T/C (second compound 0.1 µM, first compound 0.1 µM) was 91.6%, the viability, T/C (second compound 0.1 µM, first compound 0.316 µM) was 89.3% and the viability, T/C (second compound 0.1 µM, first compound 1 µM) was 66.2%. It also gave a viability, T/C (second compound 0.316 µM, first compound 0.00316 µM) of 109%, a viability, T/C (second compound 0.316 µM, first compound 0.01 µM) of 102% and a viability, T/C (second compound 0.316 µM, first compound 0.0316 µM) of 96.3%. The viability, T/C (second compound 0.316 µM, first compound 0.1 µM) was 86%, the viability, T/C (second compound 0.316 µM, first compound 0.316 µM) was 90.2% and the viability, T/C (second compound 0.316 µM, first compound 1 µM) was 81.2%. The viability, T/C (second compound 1 µM, first compound 0.00316 µM) was 106%, the viability, T/C (second compound 1 µM, first compound 0.01 µM) was 99.6% and the viability, T/C (second compound 1 µM, first compound 0.0316 µM) was 90.7%. The viability, T/C (second compound 1 µM, first compound 0.1 µM) was 82.3%, the viability, T/C (second compound 1 µM, first compound 0.316 µM) was 83.2% and the viability, T/C (second compound 1 µM, first compound 1 µM) was 67.7%. The viability, T/C (second compound 3.16 µM, first compound 0.00316 µM) was 84.5%, the viability, T/C (second compound 3.16 µM, first compound 0.01 µM) was 76% and the viability, T/C (second compound 3.16 µM, first compound 0.0316 µM) was 69%. For the same compound, the viability, T/C (second compound 3.16 µM, first compound 0.1 µM) was 57.9%, the viability, T/C (second compound 3.16 µM, first compound 0.316 µM) was 62.5% and the viability, T/C (second compound 3.16 µM, first compound 1 µM) was 57.7%. The viability, T/C (second compound 10 µM, first compound 0.00316 µM) was 46.4%, the viability, T/C (second compound 10 µM, first compound 0.01 µM) was 48.3% and the viability, T/C (second compound 10 µM, first compound 0.0316 µM) was 38.3%. For the same compound, the viability, T/C (second compound 10 µM, first compound 0.1 µM) was 45.7%, the viability, T/C (second compound 10 µM, first compound 0.316 µM) was 45.2% and the viability, T/C (second compound 10 µM, first compound 1 µM) was 42.5%.

With `CCC(CC)c1cc(NC2CCC(N)C2)n2nccc2n1` (centres undefined) the viability, T/C (compound 0.0316 µM) was 115% [middle of 4 runs], the viability, T/C (compound 0.1 µM) was 112% [middle of 4 runs] and the viability, T/C (compound 0.316 µM) was 112% [middle of 4 runs]. For the same compound, the viability, T/C (compound 1 µM) was 109% and 108% (2×) and 113%, the viability, T/C (compound 3.16 µM) was 9.12% [middle of 4 runs] and the viability, T/C (compound 10 µM) was 1.18% [middle of 4 runs]. The IC50 (curve of compound) was 1.9 µM and 1.97 µM and 2.03 µM.
